Experimental data reported in ChEMBL document CHEMBL5346920, “Development of the "hidden" multi-target-directed ligands by AChE/BuChE for the treatment of Alzheimer's disease” (Eur J Med Chem, 2023).
The source made the active and inactive calls. No cut-off for these calls is given here.

Assays:
[1] = target: Cholinesterase (Equus caballus) (UniProt P81908); test: Reversible inhibition of equine serum BuChE assessed as enzyme activity using butyrylthiocholine chloride as substrate measured after dilution to 0.1XIC50 for 240 mins by Ellman's method; assay type: cell-free; parameters: scale not given: the % may be the effect or the level left
Sequence of Cholinesterase (Equus caballus) (P81908 whole entry): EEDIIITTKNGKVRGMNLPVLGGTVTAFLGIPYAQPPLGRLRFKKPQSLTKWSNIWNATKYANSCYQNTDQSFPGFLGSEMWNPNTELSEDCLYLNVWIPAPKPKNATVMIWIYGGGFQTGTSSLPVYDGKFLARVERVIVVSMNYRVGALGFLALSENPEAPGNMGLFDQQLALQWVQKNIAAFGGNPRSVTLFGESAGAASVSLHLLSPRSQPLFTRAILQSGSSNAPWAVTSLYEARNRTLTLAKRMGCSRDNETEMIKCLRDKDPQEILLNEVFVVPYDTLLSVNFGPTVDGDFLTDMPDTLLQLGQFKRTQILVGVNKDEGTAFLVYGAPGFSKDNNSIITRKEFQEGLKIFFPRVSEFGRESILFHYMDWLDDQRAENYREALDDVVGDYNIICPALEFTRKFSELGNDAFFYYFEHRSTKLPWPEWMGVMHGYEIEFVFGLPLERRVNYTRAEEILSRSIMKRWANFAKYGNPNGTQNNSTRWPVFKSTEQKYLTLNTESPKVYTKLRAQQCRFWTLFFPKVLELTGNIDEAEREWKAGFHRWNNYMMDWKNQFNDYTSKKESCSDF

Danio rerio [2] = species on record: Danio rerio; test: Antialzheimer activity against AlCl3-induced Alzheimer's disease zebra fish model assessed as total distance moved at 8 uM treated for 24 hrs and measured after 24 hrs under light environment (reference value: 230 cm); assay type: functional; conditions: time 48 hrs
Danio rerio [3] = species on record: Danio rerio; test: Antialzheimer activity against AlCl3-induced Alzheimer's disease zebra fish model assessed as total distance moved at 8 uM treated for 24 hrs and measured after 24 hrs under dark environment (reference value: 312 cm); assay type: functional; conditions: time 48 hrs
Danio rerio [4] = species on record: Danio rerio; test: Antialzheimer activity against AlCl3-induced Alzheimer's disease zebra fish model assessed as total distance moved at 8 uM treated for 24 hrs and measured after 24 hrs under alternating light dark stimuli conditions (reference value: 543 cm); assay type: functional; conditions: time 48 hrs
Danio rerio [5] = species on record: Danio rerio; test: Neuroprotective activity against AlCl3-induced Alzheimer's disease zebra fish model assessed as inhibition of AlCl3-induced AChE activity at 8 uM treated for 24 hrs and measured after 24 hrs; assay type: functional, organism-based; conditions: time 48.0 hrs
Danio rerio [6] = species on record: Danio rerio; test: Neuroprotective activity against AlCl3-induced Alzheimer's disease zebra fish model assessed as increase in ACh content at 8 uM treated for 24 hrs and measured after 24 hrs; assay type: functional, organism-based; conditions: time 48.0 hrs
[7] = target: T1, Amine oxidase [flavin-containing] A (Homo sapiens, UniProt P21397); test: Inhibition of human recombinant MAO-A expressed in baculovirus-infected BTI cells using kynuramine as substrate incubated for 30 mins by fluorescence based analysis
T1 sequence (P21397 whole entry): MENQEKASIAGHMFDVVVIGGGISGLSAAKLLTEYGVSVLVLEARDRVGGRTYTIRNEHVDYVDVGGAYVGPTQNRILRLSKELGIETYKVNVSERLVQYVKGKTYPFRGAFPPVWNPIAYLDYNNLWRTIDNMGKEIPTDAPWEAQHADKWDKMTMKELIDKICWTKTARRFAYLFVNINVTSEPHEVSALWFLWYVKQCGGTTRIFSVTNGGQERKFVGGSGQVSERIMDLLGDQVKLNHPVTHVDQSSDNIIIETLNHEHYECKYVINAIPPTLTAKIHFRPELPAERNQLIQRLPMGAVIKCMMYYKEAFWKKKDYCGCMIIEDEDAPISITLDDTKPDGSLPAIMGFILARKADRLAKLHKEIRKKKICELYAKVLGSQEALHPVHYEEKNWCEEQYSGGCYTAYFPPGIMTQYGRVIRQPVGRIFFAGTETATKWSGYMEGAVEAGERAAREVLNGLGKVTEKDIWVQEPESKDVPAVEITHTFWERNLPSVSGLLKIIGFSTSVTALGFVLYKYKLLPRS

[8] = target: T2, Amine oxidase [flavin-containing] B (Homo sapiens, UniProt P27338); test: Inhibition of human recombinant MAO-B expressed in baculovirus-infected BTI cells using kynuramine as substrate incubated for 30 mins by fluorescence based analysis
T2 sequence (P27338 whole entry): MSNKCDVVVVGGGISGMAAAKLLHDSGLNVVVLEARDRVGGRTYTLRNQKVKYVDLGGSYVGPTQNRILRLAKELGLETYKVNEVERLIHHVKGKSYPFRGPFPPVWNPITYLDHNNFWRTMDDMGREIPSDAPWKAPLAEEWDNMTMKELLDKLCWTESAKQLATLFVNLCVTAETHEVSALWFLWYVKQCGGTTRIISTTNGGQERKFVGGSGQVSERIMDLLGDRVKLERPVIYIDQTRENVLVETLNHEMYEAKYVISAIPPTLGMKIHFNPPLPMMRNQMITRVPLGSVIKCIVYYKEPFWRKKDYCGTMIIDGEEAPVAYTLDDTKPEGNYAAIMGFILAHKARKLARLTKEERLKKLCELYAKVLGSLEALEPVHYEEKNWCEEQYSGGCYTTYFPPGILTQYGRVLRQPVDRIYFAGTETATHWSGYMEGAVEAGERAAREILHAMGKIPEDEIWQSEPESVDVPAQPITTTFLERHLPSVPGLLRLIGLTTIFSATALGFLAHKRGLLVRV

Homo sapiens = species on record: Homo sapiens; test: Selectivity index, ratio of IC50 for inhibition of human recombinant MAO-A expressed in baculovirus-infected BTI cells to IC50 for inhibition of human recombinant MAO-B expressed in baculovirus-infected BTI cells
[9] = target: Amyloid-beta precursor protein (Homo sapiens) (UniProt P05067); test: Inhibition of self-induced Amyloid beta (1 to 42) (unknown origin) aggregation at 25 uM incubated for 24 hrs by thioflavin T-based fluorescence analysis
Sequence of Amyloid-beta precursor protein (Homo sapiens) (P05067 whole entry): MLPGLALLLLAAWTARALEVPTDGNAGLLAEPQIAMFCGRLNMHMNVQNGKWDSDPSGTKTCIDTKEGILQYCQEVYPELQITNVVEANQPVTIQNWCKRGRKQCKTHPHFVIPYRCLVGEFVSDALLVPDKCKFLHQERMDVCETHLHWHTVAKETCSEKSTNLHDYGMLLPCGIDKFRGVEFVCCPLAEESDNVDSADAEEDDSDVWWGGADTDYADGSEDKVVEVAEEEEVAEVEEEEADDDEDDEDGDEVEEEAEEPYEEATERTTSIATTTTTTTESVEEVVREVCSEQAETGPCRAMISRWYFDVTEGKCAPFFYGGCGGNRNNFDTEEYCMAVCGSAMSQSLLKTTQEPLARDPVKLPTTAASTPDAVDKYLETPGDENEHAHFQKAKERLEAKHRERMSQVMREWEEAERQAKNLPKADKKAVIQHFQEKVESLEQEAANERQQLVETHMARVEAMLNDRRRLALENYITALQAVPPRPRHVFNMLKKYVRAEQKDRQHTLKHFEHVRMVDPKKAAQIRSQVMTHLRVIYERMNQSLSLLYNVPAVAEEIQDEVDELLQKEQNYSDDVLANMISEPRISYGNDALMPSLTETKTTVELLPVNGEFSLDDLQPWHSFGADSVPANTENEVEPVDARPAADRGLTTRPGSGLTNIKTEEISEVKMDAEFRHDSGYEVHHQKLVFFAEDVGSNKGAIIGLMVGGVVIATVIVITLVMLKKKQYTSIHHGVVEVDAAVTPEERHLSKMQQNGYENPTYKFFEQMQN

BV-2 [10] = test: Cytotoxicity against mouse BV-2 cells assessed as reduction in cell viability at 10 uM by CCK8 assay; assay type: toxicity, cell-based; conditions: bv-2, 10 µM
[11] = (§1) Cytotoxicity against mouse BV-2 cells assessed as cell viability at 30 uM by CCK8 assay; assay type: toxicity, cell-based; conditions: BV-2 cells, read-out: Activity
BV-2 [12] = test: Anti-inflammatory activity against LPS-stimulated mouse BV-2 cells assessed as inhibition of LPS-induced NO production incubated for 24 hrs in presence of LPS; assay type: functional, cell-based; conditions: dose 1-9 µM
PC-12 [13] = test: Cytotoxicity against rat PC-12 cells assessed as cell viability at 40 uM by CCK-8 assay; assay type: toxicity, cell-based; conditions: pc-12, 40 µM
PC-12 [14] = test: Neuroprotective activity against Amyloid beta(25 to 35)-induced cell injury in rat PC12 cells assessed as cell viability at 5 uM pretreated for 2 hrs followed by incubation with Abeta(25 to 35) for 24 hrs by CCK-8 assay (reference value: 41 to 58.6%); assay type: functional; conditions: time 26 hrs, read-out: Activity
PC-12 [15] = test: Neuroprotective activity against Amyloid beta(25 to 35)-induced cell injury in rat PC12 cells assessed as cell viability at 10 uM pretreated for 2 hrs followed by incubation with Abeta(25 to 35) for 24 hrs by CCK-8 assay (reference value: 41 to 58.6%); assay type: functional; conditions: time 26 hrs, read-out: Activity
PC-12 [16] = test: Neuroprotective activity against Amyloid beta(25 to 35)-induced cell injury in rat PC12 cells assessed as cell viability at 20 uM pretreated for 2 hrs followed by incubation with Abeta(25 to 35) for 24 hrs by CCK-8 assay (reference value: 41 to 58.6%); assay type: functional; conditions: time 26 hrs, read-out: Activity
[17] = Metal chelating activity assessed as compound-Cu2+ complex formation by measuring maximum absorption wavelength shift from 316 to 446 nm at 37.5 uM incubated for 30 mins in presence of CuCl2 by UV-Vis spectrometry
[18] = Metal chelating activity assessed as compound-Al3+ complex formation by measuring maximum absorption wavelength shift from 316 to 434 nm at 37.5 uM incubated for 30 mins in presence of AlCl3 by UV-Vis spectrometry
[19] = Metal chelating activity assessed as compound-Fe2+ complex formation at 37.5 uM incubated for 30 mins in presence of FeSO4 by UV-Vis spectrometry
[20] = Metal chelating activity assessed as compound-Zn2+ complex formation at 37.5 uM incubated for 30 mins in presence of ZnCl2 by UV-Vis spectrometry
[21] = Metal chelating activity assessed as compound-Cu2+ complex formation at stoichiometric ratio of 1:1 at 37.5 uM in presence of CuCl2 by UV-Vis spectrometry
[22] = Metal chelating activity assessed as compound-Cu2+ complex formation by measuring inhibition of Cu2+-induced amyloid beta (1 to 42) aggregation at 25 uM by thioflavin T-based fluorescence analysis
[23] = Metal chelating activity assessed as compound-Cu2+ complex formation by measuring small fiber aggregates incubated for 24 hrs by transmission electron microscopy
Acetylcholinesterase = Acetylcholinesterase (Electrophorus electricus, UniProt O42275); test: Inhibition of electric eel AChE using acetylthiocholine chloride as substrate by Ellman's method
Sequence of Acetylcholinesterase (O42275 whole entry): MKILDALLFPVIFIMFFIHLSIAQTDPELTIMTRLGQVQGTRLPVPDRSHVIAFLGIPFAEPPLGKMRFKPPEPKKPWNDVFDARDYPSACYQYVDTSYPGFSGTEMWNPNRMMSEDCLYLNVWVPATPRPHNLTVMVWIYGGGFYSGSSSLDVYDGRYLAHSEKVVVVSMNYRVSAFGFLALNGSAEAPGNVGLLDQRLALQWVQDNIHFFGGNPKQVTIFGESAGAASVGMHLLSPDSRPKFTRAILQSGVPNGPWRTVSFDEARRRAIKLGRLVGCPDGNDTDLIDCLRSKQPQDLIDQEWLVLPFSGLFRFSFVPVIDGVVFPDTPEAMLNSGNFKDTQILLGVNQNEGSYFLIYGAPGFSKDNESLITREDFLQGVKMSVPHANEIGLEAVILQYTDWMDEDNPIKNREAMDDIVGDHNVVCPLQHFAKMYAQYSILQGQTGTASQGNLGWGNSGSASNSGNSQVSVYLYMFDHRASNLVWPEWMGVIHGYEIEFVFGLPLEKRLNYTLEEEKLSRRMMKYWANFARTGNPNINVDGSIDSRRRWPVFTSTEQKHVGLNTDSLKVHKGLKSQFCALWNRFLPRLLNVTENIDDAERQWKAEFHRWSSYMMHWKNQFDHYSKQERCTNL

[24] = target: Cholinesterase (Equus caballus) (UniProt P81908); test: Inhibition of equine serum BuChE using butyrylthiocholine chloride as substrate at 25 uM by Ellman's method; assay type: cell-free
BV-2 [25] = test: Anti-inflammatory activity against LPS-stimulated mouse BV-2 cells assessed as inhibition of LPS-induced IL-6 production incubated for 24 hrs in presence of LPS; assay type: functional, cell-based; conditions: dose 1-9 µM
BV-2 [26] = test: Anti-inflammatory activity against LPS-stimulated mouse BV-2 cells assessed as inhibition of LPS-induced IL-1 beta production incubated for 24 hrs in presence of LPS; assay type: functional, cell-based; conditions: dose 1-9 µM
[27] = Permeability of the compound at 100 ug/ml incubated for 18 hrs by PAMPA assay; assay type: ADME; conditions: dose 100 µg/ml, read-out: permeability
[28] = Stability of the compound in blank gastric juice assessed as parent compound remaining at 1 mg/ml measured after 8 hrs by UPLC-MS/MS analysis; assay type: ADME; conditions: read-out: Stability
[29] = Stability of the compound in artificial gastric juice assessed as parent compound remaining at 1 mg/ml measured after 8 hrs by UPLC-MS/MS analysis; assay type: ADME; conditions: read-out: Stability
[30] = Stability of the compound in blank intestinal juice assessed as parent compound remaining at 1 mg/ml measured after 8 hrs by UPLC-MS/MS analysis; assay type: ADME; conditions: read-out: Stability
[31] = Stability of the compound in artificial intestinal juice assessed as parent compound remaining at 1 mg/ml measured after 8 hrs by UPLC-MS/MS analysis; assay type: ADME; conditions: read-out: Stability
[32] = Stability of the compound in rat plasma assessed as parent compound remaining at 10 ug/ml measured after 3 hrs by UPLC-MS/MS analysis; assay type: ADME, cell-free; conditions: at 10 µg/mL, read-out: Stability
[33] = Stability of the compound in rat liver microsomes assessed as parent compound remaining at 10 ug/ml measured after 60 mins by UPLC-MS/MS analysis; assay type: ADME, Microsome; conditions: at 10 µg/mL, read-out: Stability
BV-2 [34] = test: as §1; assay type: toxicity, cell-based; conditions: bv-2, 30 µM
BV-2 [35] = test: Anti-inflammatory activity against LPS-stimulated mouse BV-2 cells assessed as inhibition of LPS-induced IL-6 production by measuring IL-6 level at 9 uM incubated for 24 hrs in presence of LPS (reference value: 1503.2 pg/ml); assay type: functional
BV-2 [36] = test: Anti-inflammatory activity against LPS-stimulated mouse BV-2 cells assessed as inhibition of LPS-induced IL-6 production by measuring IL-6 level at 3 uM incubated for 24 hrs in presence of LPS (reference value: 1503.2 pg/ml); assay type: functional
BV-2 [37] = test: Anti-inflammatory activity against LPS-stimulated mouse BV-2 cells assessed as inhibition of LPS-induced IL-6 production by measuring IL-6 level at 1 uM incubated for 24 hrs in presence of LPS (reference value: 1503.2 pg/ml); assay type: functional
BV-2 [38] = test: Anti-inflammatory activity against LPS-stimulated mouse BV-2 cells assessed as inhibition of LPS-induced IL-1 beta production by measuring IL-beta level at 9 uM incubated for 24 hrs in presence of LPS (reference value: 221.3 pg/ml); assay type: functional
BV-2 [39] = test: Anti-inflammatory activity against LPS-stimulated mouse BV-2 cells assessed as inhibition of LPS-induced IL-1 beta production by measuring IL-beta level at 3 uM incubated for 24 hrs in presence of LPS (reference value: 221.3 pg/ml); assay type: functional
BV-2 [40] = test: Anti-inflammatory activity against LPS-stimulated mouse BV-2 cells assessed as inhibition of LPS-induced IL-1 beta production by measuring IL-beta level at 1 uM incubated for 24 hrs in presence of LPS (reference value: 221.3 pg/ml); assay type: functional

In the case of `COc1cc2c(cc1OC)C(=O)C(CC1CCN(Cc3ccccc3)CC1)C2` (configuration not stated) [DONEPEZIL], the Activity [1] is reported as 118%, the Activity (Danio rerio [2]) is reported as 334 cm and the Activity (Danio rerio [3]) is reported as 325 cm. For the same compound, the Activity (Danio rerio [4]) was 671 cm, the Activity (Danio rerio [5]) was “Active” and the Activity (Danio rerio [6]) was “Active”.

For `O=C(/C=C/c1ccc(F)cc1)c1ccccc1O`, the IC50 [7] was 38.3 µM, the IC50 [8] was 0.67 µM and the Ratio IC50 (Homo sapiens) was 57.2. For the same compound, the inhibition [9] was 76.9%, the Activity (BV-2 [10]) was “Non-Toxic” and the viability at 30 µM [11] was 80.1%. The Activity (BV-2 [12]) was “Dose-Dependent Effect”, the Activity (PC-12 [13]) was “Non-Toxic” and the viability at 5 µM (PC-12 [14]) was 80.6%. For the same compound, the viability at 10 µM (PC-12 [15]) was 89.9%, the viability at 20 µM (PC-12 [16]) was 99.1% and the Activity [17] was “Active”. For the same compound, the Activity [18] was “Active”, the Activity [19] was “inactive” and the Activity [20] was “inactive”. The Activity [21] was “Active”, the inhibition [22] was 86.5% and the Activity [23] was “Active”. The IC50 (Acetylcholinesterase) was 25.7 µM, the inhibition [24] was 10.6% and the Activity (BV-2 [25]) was “Dose-Dependent Effect”. The Activity (BV-2 [26]) was “Dose-Dependent Effect”, the Papp at 18 h, 100 ug/ml [27] was 11.5 ×10⁻⁶ cm/s and the remaining at 8 h, 1 mg/ml [28] was 97%. It also gave a remaining at 8 h, 1 mg/ml [29] of 99%, a remaining at 8 h, 1 mg/ml [30] of 96% and a remaining at 8 h, 1 mg/ml [31] of 96.5%. The remaining at 3 h, 10 ug/ml [32] was 101% and the remaining at 1 h, 10 ug/ml [33] was 97.2%.

With `CC(C(=O)O)c1ccc(-c2ccccc2)c(F)c1` (configuration not stated) [FLURBIPROFEN] the Activity (BV-2 [34]) was “Non-Toxic”, the Activity (BV-2 [35]) was 808.6 pg/mL and the Activity (BV-2 [36]) was 1096.7 pg/mL. It also gave an Activity (BV-2 [37]) of 1280.5 pg/mL, an Activity (BV-2 [38]) of 92.9 pg/mL and an Activity (BV-2 [39]) of 149.8 pg/mL. The Activity (BV-2 [40]) was 185.6 pg/mL.
